Measured values from ChEMBL document CHEMBL4385656, “Ciprofloxacin-1,2,3-triazole-isatin hybrids tethered via amide: Design, synthesis, and in vitro anti-mycobacterial activity evaluation” (Bioorg Med Chem Lett, 2019).
≈ marks a conversion by molar mass, not a printed value.

Assays:
Type in all cases: functional
[1] = tested on: Mycobacterium tuberculosis; assay: Anti-mycobacterial activity against isoniazid and rifampicin-resistant Mycobacterium tuberculosis
[2] = tested on: Mycobacterium tuberculosis; assay: Potency index, ratio of MIC for ciprofloxacin to MIC for test compound for anti-mycobacterial activity against isoniazid and rifampicin-resistant Mycobacterium tuberculosis
[3] = tested on: Mycobacterium tuberculosis; assay: Potency index, ratio of MIC for isoniazid to MIC for test compound for anti-mycobacterial activity against isoniazid and rifampicin-resistant Mycobacterium tuberculosis
[4] = tested on: Mycobacterium tuberculosis; assay: Potency index, ratio of MIC for rifampicin to MIC for test compound for anti-mycobacterial activity against isoniazid and rifampicin-resistant Mycobacterium tuberculosis

Row | SMILES | MIC [1] [mg/L] | other results
1 | O=C1C(=O)N(Cc2cn(CC(=O)N3CCN(c4cc5c(cc4F)c(=O)c(C(=O)O)cn5C4CC4)CC3)nn2)c2ccc(F)cc21 | 1 (≈ 1.62 µM) | 
2 | CO[C@H]1/C=C/O[C@@]2(C)Oc3c(C)c(O)c4c(O)c(c(/C=N/N5CCN(C)CC5)c(O)c4c3C2=O)NC(=O)/C(C)=C\C=C\[C@H](C)[C@H](O)[C@@H](C)[C@@H](O)[C@@H](C)[C@H](OC(C)=O)[C@@H]1C [RIFAMPIN] | > 64 | 
3 | CO/N=C1/C(=O)N(Cc2cn(CC(=O)N3CCN(c4cc5c(cc4F)c(=O)c(C(=O)O)cn5C4CC4)CC3)nn2)c2c(F)cccc21 | 32 (≈ 49.5 µM) | 
4 | CCO/N=C1/C(=O)N(Cc2cn(CC(=O)N3CCN(c4cc5c(cc4F)c(=O)c(C(=O)O)cn5C4CC4)CC3)nn2)c2ccccc21 | 16 (≈ 24.9 µM) | 
5 | CO/N=C1/C(=O)N(Cc2cn(CC(=O)N3CCN(c4cc5c(cc4F)c(=O)c(C(=O)O)cn5C4CC4)CC3)nn2)c2ccccc21 | 8 (≈ 12.7 µM) | 
6 | CCO/N=C1/C(=O)N(Cc2cn(CC(=O)N3CCN(c4cc5c(cc4F)c(=O)c(C(=O)O)cn5C4CC4)CC3)nn2)c2c(F)cccc21 | 32 (≈ 48.4 µM) | 
7 | CO/N=C1/C(=O)N(Cc2cn(CC(=O)N3CCN(c4cc5c(cc4F)c(=O)c(C(=O)O)cn5C4CC4)CC3)nn2)c2ccc(C)cc21 | 8 (≈ 12.4 µM) | 
8 | Cc1ccc2c(c1)C(=O)C(=O)N2Cc1cn(CC(=O)N2CCN(c3cc4c(cc3F)c(=O)c(C(=O)O)cn4C3CC3)CC2)nn1 | 2 (≈ 3.26 µM) | 
9 | O=C(O)c1cn(C2CC2)c2cc(N3CCNCC3)c(F)cc2c1=O [CIPROFLOXACIN] | 2 (≈ 6.04 µM) | 
10 | O=C1C(=O)N(Cc2cn(CC(=O)N3CCN(c4cc5c(cc4F)c(=O)c(C(=O)O)cn5C4CC4)CC3)nn2)c2ccccc21 | 0.12 (≈ 0.2 µM) | Ratio [2]: >=16; Ratio [3]: >=16; Ratio [4]: >=16
11 | NNC(=O)c1ccncc1 [ISONIAZID] | > 64 | 
12 | CO/N=C1/C(=O)N(Cc2cn(CC(=O)N3CCN(c4cc5c(cc4F)c(=O)c(C(=O)O)cn5C4CC4)CC3)nn2)c2ccc(F)cc21 | 16 (≈ 24.7 µM) | 
13 | CCO/N=C1/C(=O)N(Cc2cn(CC(=O)N3CCN(c4cc5c(cc4F)c(=O)c(C(=O)O)cn5C4CC4)CC3)nn2)c2ccc(C)cc21 | 32 (≈ 48.7 µM) | 
14 | CCO/N=C1/C(=O)N(Cc2cn(CC(=O)N3CCN(c4cc5c(cc4F)c(=O)c(C(=O)O)cn5C4CC4)CC3)nn2)c2ccc(F)cc21 | 16 (≈ 24.2 µM) | 
15 | O=C1C(=O)N(Cc2cn(CC(=O)N3CCN(c4cc5c(cc4F)c(=O)c(C(=O)O)cn5C4CC4)CC3)nn2)c2c(F)cccc21 | 2 (≈ 3.24 µM) | 
